Values of other authors as cited in patent US20190320628A1, “A NON-HUMAN ANIMAL MODEL OF NEURODEGENERATIVE DISORDERS” (priority 2016, published 2019).

Experiments:
Wistar rats = settings: KA alone
rats = settings: initial KA dose 5 mg/kg i.p., subsequent doses tailored
animals = settings: KA used to model human epilepsy, SE/cSE-based models

In the case of C=C(C)[C@H]1CN[C@H](C(=O)O)[C@H]1CC(=O)O [KA, kainic acid], the “Non-responders among the surviving animals” value (Wistar rats) is listed as 20-40%, the Mortality (Wistar rats; SE terminated by diazepam) is listed as “up to 30%” and the Mortality rate (rats) is listed as “around 15%”. The Mortality (animals) was “up to 50%” and the “Non-responders (surviving animals that never exhibit spontaneous seizures)” value (animals) was “up to 50%”.
